Activity calls are given as the source filed them.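 Rule for the calls: active = a tumor-causing dose value with its tumor site reported for any sex and species group of a rodent or other animal cancer study; inconclusive = only studies judged inadequate by the national testing program; inactive = tested in at least one study, none positive.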 Numbered stars: 1 amine (or outer) side, 2 acyl side, 3 side chain; on linkers, the order of the positions; unused ones are H or OH. Bridge positions count the residues as written; N and C are the ends. Square brackets hold non-standard residues; d marks the D form. Peptide text beside a SMILES is read from it. I, II: the chains in the order shown. Actinocin(1to9) = Cc1c2oc3c(C)ccc(C(=O)[*:2])c3nc-2c(C(=O)[*:1])c(N)c1=O; d(aIle) = CC[C@H](C)[C@@H](N)C(=O)O; NMeV = CN[C@H](C(=O)O)C(C)C; Sar = CNCC(=O)O

A short description of the data set: DSSTox (CPDBAS) Carcinogenic Potency Database Summary SingleCellCall Results. The conditions noted are these: animal chronic carcinogenicity bioassays, CPDB summary call. From the text:
The Carcinogenic Potency Database (CPDB) is a unique and widely used international resource of the results of over 6500 chronic, long-term animal cancer tests on over 1500 chemical substances. The CPDB provides easy access to the bioassay literature, with qualitative and quantitative analyses of both positive and negative experiments that have been published over the past 50 years in the general literature and by the National Cancer Institute/National Toxicology Program. The CPDB standardizes the diverse literature of cancer bioassays that vary widely in protocol, histopathological examination and nomenclature, and in the published author's choices of what information to provide in their papers. Results are reported in the CPDB for tests in rats, mice, hamsters, dogs, and nonhuman primates, and are based on the most positive result among all experiments for each sex-species. The DSSTox CPDBAS (all species) file incorporates data from the CPDB Summary Tables for the full list of over 1500 chemical substances tested in at least one species. A summary SingleCellCall, based on experimental bioassay results of one or more species, is provided for the entire DSSTox CPDBAS file (see Source URL).
An assignment of categorical carcinogenic activity based on minimal evidence for or against activity. […] Associated TD50 values and tumor site details for the relevant species/sex experiment supporting this overall CPDBAS SingleSiteCall are provided in the full CPDBAS DSSTox file (see Comment) and the corresponding CPDBAS Species Bioassay in PubChem.
`NC(=S)C(N)=S`: the outcome was inactive.

Turning to `CCC1(CC)C(=O)N=C(O)NC1=O`, the outcome is “active; inactive”.

Turning to `CCCCOCCO`, the result was active.

On to `C[C@]12CC[C@H]3C(=CCc4cc(OS(=O)(=O)O)ccc43)[C@@H]1CCC2=O`, for which the outcome is “inactive; active”.

For the compound `BrCCBr`, the outcome was “active; inactive”.

On to `NC(Cc1ccc(O)c(O)c1)C(=O)O` (stereo unspecified), for which the result was inactive.

As to `c1ccc2sc(SSc3nc4ccccc4s3)nc2c1`, the result was inactive.

Regarding `Cc1c([N+](=O)[O-])c(C)c([N+](=O)[O-])c(C(C)(C)C)c1[N+](=O)[O-]`, the outcome was active.

`Cc1ccc(OP(=O)(Oc2ccc(C)cc2)Oc2ccc(C)cc2)cc1`: the result was inactive.

Take `CCCCCCCC(=O)OCC(COC(=O)CCCCCCC)OC(=O)CCCCCCC`: the result was active.

As for `O=S(=O)(Oc1ccc(Cl)cc1Cl)c1ccccc1`, the outcome was inactive.

`CCBr`: the result was active.

For `O=C/C(Cl)=C(/Cl)C(=O)O`, the outcome was inactive.

With `CC(O)C(=O)O` (stereo unspecified), the result was inactive.

`O=NN1CCNCC1`: the outcome is “active; inactive”.

For `O=C(O)c1[nH]n(-c2ccc(S(=O)(=O)O)cc2)c(=O)c1N=Nc1ccc(S(=O)(=O)O)cc1`, the result was inactive.

As for `C#CC(C)(C)NC(=O)c1cc(Cl)cc(Cl)c1`, the result was active.

For `[C-]1=CC=CC1.[C-]1=CC=CC1.[Cl-].[Cl-].[Ti+4]`, the outcome was “inactive; active”.

`Cc1ccc(N)cc1`: the outcome was active.

Regarding `COC(=O)C1=C(C)NC(C)=C(C(=O)OCC(C)(C)CN(C)Cc2ccccc2)C1c1cc([N+](=O)[O-])ccc1F` (stereo unspecified), the result was inactive.

In the case of `O=C(C1CCCCC1)N1CC(=O)N2CCc3ccccc3C2C1` (stereo unspecified), the result was inactive.

As for `S=C=NCCCCCCc1ccccc1`, the result was inactive.

As for `N#CS`, the outcome was inactive.

In the case of `N[C@@H](CCC(=O)NNc1ccc(C(=O)O)cc1)C(=O)O`, the outcome was “active; inactive”.

On to `NNc1nc(-c2ccc([N+](=O)[O-])o2)cs1`, for which the outcome was “active; inactive”.

Turning to `COc1ccc([N+](=O)[O-])cc1N`, the outcome was active.

For `Oc1cccc(O)c1`, the outcome was inactive.

Regarding `COC1[C@@H](O[C@@H]2O[C@H](C)[C@@H](O[C@H]3C[C@@](C)(O)[C@H](OC(=O)CC(C)C)[C@H](C)O3)[C@H](N(C)C)[C@H]2O)[C@@H](CC=O)C[C@@H](C)[C@@H](O)/C=C/C=C/C[C@@H](C)OC(=O)C[C@H]1OC(C)=O` (stereo partly specified), the outcome was “inactive; active”.

On to `CC(COc1ccccc1)N(CCCl)Cc1ccccc1` (stereo unspecified), for which the outcome is “active; inactive”.

Turning to `COc1ccc(OC)c(/C=C/c2ccc(N)cc2)c1`, the result was active.

`CCCCC1(COC(=O)CCC(=O)O)C(=O)N(c2ccccc2)N(c2ccccc2)C1=O`: the outcome was inactive.

For `ClC(Cl)Br`, the outcome was active.

As to `CC1=CC(=O)CC(C)(C)C1`, the outcome was active.

Take `CN(C)c1ccc(C(=O)c2ccc(N(C)C)cc2)cc1`: the result was active.

For the compound `OCCOCCOCCO`, the outcome was inactive.

As to `Nc1cc(Cl)c(-c2cc(Cl)c(N)cc2Cl)cc1Cl`, the result was inactive.

Turning to `O=[N+]([O-])c1ccccc1`, the result was active.

As for `CC(C)n1c(/C=C/[C@@H](O)C[C@@H](O)CC(=O)O)c(-c2ccc(F)cc2)c2ccccc21`, the result was active.

Consider `CC1(C)COC1=O`, for which the outcome was active.

Take `O=NN1CCCCCC1`: the result was active.

Turning to `COc1ccc(C)cc1N`, the outcome was active.

In the case of `CCCCCN(CCCCC)N=O`, the outcome was “active; inactive”.

In the case of `Cc1c(N)nc(C)c2c1[nH]c1ccccc12`, the result was active.

Regarding `OC[C@H]1O[C@H](O[C@]2(CCl)O[C@H](CCl)[C@@H](O)[C@@H]2O)[C@H](O)[C@@H](O)[C@H]1Cl`, the result was inactive.

As for `CN(C)c1ccc(N=NS(=O)(=O)O)cc1`, the result was inactive.

In the case of `Cc1ccccc1S(N)(=O)=O`, the result was active.

Regarding `C[C@@H]1O[C@@]2(CS1)CN1CCC2CC1`, the result was inactive.

With `CC1CN(N=O)CC(C)N1C(=O)c1ccccc1` (stereo unspecified), the outcome was active.

For the compound `[N-]=[N+]=O`, the result was inactive.

Consider `CCC1CO1` (stereo unspecified), for which the outcome is “active; inactive”.

As for `Nc1ccc(N=Nc2ccccc2)c(N)n1`, the outcome was active.

In the case of `O=C1CCc2ccccc2O1`, the outcome was “active; inactive”.

In the case of `Nc1nc(N)nc(-c2ccc([N+](=O)[O-])o2)n1`, the result was active.

Regarding `Cc1ccc2c(c1N)C(=O)c1ccccc1C2=O`, the outcome was active.

As for `CCCN(CCC)c1c([N+](=O)[O-])cc(C(F)(F)F)cc1[N+](=O)[O-]`, the outcome was active.

On to `CCOc1ccc2c(c1)C(C)=CC(C)(C)N2`, for which the outcome was “inactive; active”.

`CCOP(=O)(CC1CO1)OCC` (stereo unspecified): the result was inactive.

For `Cn1c(N)nc2ncc(-c3ccccc3)cc21`, the result was active.

As to `FC(F)Cl`, the outcome was inactive.

As to `CC(C)(C)c1cc(C(C)(C)C)c(O)c(C(C)(C)C)c1`, the outcome was inactive.

As to `O.O.O.O.O=C([O-])CC(O)(CC(=O)[O-])C(=O)[O-].[Fe+3]`, the result was inactive.

Turning to `O=C1CC(=O)NC(=O)N1`, the result was inactive.

Consider `CNCCc1ccc(OC(=O)C(C)C)c(OC(=O)C(C)C)c1`, for which the outcome was inactive.

Consider `Clc1ccc(-c2ccc(Cl)c(Cl)c2Cl)c(Cl)c1Cl`, for which the outcome was active.

Regarding `COP(=O)(OC)C(O)C(Cl)(Cl)Cl` (stereo unspecified), the result was inactive.

With `CCCNN`, the result was active.

With `[Na+]`, the outcome was inactive.

In the case of `Cl/C=C/CCl`, the result was active.

In the case of `CC(=O)O[C@H]1CC[C@@]2(C)C(=CC[C@@H]3[C@@H]2CC[C@]2(C)C(=O)CC[C@@H]32)C1`, the result was active.

Take `OCC(O)CO`: the outcome was inactive.

Turning to `CN(C)[C@@H]1C(=O)C(C(N)=O)=C(O)[C@@]2(O)C(=O)C3=C(O)c4c(O)cccc4[C@@](C)(O)[C@H]3C[C@@H]12`, the outcome was inactive.

For `[N]=O`, the outcome was inactive.

On to `CN(C)c1ccc(C(=C2C=CC(=[N+](C)C)C=C2)c2ccc(N(C)C)cc2)cc1`, for which the outcome is “active; inactive”.

`Cc1c(N(C)C)c(=O)n(-c2ccccc2)n1C`: the result was inactive.

For the compound `N#Cc1c(Cl)c(Cl)c(Cl)c(C#N)c1Cl`, the outcome was “active; inactive”.

For the compound `CCOC(=O)N(CC)N=O`, the outcome is “active; inactive”.

Regarding `Cc1nc(N)cc2[nH]c3ccccc3c12`, the outcome was active.

On to `Cc1cccc(N=Nc2ccc(N(C)C)cc2)c1`, for which the outcome was active.

As for `O=C1C(Cl)=C(Cl)C(=O)c2ccccc21`, the outcome was inactive.

Consider `CC(C)Oc1ccccc1OC(=O)N(C)N=O`, for which the outcome was active.

For the compound `CC(C)(Oc1ccc(C2CC2(Cl)Cl)cc1)C(=O)O` (stereo unspecified), the outcome was active.

Regarding `O[C@H]([C@H](O)[C@@H](O)CBr)[C@H](O)CBr`, the outcome is “active; inactive”.

Consider `C#C[C@@]1(O)CC[C@H]2[C@@H]3CCC4=CCCC[C@@H]4[C@H]3CC[C@@]21C`, for which the outcome was active.

With `NC(=O)CI`, the outcome was “inactive; active”.

As to `CC1=C(C(=O)OCCN(Cc2ccccc2)c2ccccc2)C(c2cccc([N+](=O)[O-])c2)C(P2(=O)OCC(C)(C)CO2)=C(C)N1` (stereo unspecified), the outcome was inactive.

`CCCCCCCCCCCCCCCC(=O)OC/C=C(C)/C=C/C=C(C)/C=C/C1=C(C)CCCC1(C)C`: the result was inactive.

`Cc1cccc(C)c1N`: the outcome is “inactive; active”.

Turning to `C1C2OC2C2C1C1CC2C2OC12` (stereo unspecified), the result was inactive.

For `CCCCCCOc1cc(C)c(O)c(C)c1C`, the outcome is “inactive; active”.

Regarding `N[C@@H](CS)C(=O)O`, the outcome was inactive.

For `CCCN(CCC)c1ccc(N=Nc2cc[n+]([O-])cc2)cc1`, the outcome was inactive.

In the case of `FC(F)OC(F)(F)C(F)Cl` (stereo unspecified), the result was inactive.

With `CC[C@H](C)[C@H]1NC(=O)[C@@H](NC(=O)c2c3nc4c(C(=O)N[C@@H]5C(=O)N[C@H](C(C)C)C(=O)N6CCC[C@H]6C(=O)N(C)CC(=O)N(C)[C@@H](C(C)C)C(=O)O[C@@H]5C)ccc(C)c4oc-3c(C)c(=O)c2N)[C@@H](C)OC(=O)[C@H](C(C)C)N(C)C(=O)CN(C)C(=O)[C@@H]2CCCN2C1=O` (I: T[d(aIle)]P[Sar][NMeV] / II: T[dV]P[Sar][NMeV]; ester I:1-I:C, II:1-II:C; linker I:N-II:N via Actinocin(1to9)), the result was inactive.

As to `CN(N=O)c1cccnc1`, the result was inactive.

`CCOc1ccc(NC(C)=O)cc1[N+](=O)[O-]`: the outcome was active.

As to `CCC1(c2ccccc2)C(=O)NCNC1=O`, the result was active.

For the origin of these results see PubChem BioAssay AID1189 (EPA DSSTox, 2008).
